Values quoted from earlier work in patent US20040220281A1, “Treatment of hormone-refractory prostate cancer” (priority 2003, published 2004).
Like-named read-outs stand apart in the source and are kept apart here.

Key:
[1] = target: p-glycoprotein (P-gp) pump (Homo sapiens, UniProt P08183)
CYP 3A4 = CYP 3A4 (Homo sapiens, UniProt P08684)
[2] = in vitro
[3] = in vivo

Sequence of CYP 3A4 (P08684 whole entry, species assumed): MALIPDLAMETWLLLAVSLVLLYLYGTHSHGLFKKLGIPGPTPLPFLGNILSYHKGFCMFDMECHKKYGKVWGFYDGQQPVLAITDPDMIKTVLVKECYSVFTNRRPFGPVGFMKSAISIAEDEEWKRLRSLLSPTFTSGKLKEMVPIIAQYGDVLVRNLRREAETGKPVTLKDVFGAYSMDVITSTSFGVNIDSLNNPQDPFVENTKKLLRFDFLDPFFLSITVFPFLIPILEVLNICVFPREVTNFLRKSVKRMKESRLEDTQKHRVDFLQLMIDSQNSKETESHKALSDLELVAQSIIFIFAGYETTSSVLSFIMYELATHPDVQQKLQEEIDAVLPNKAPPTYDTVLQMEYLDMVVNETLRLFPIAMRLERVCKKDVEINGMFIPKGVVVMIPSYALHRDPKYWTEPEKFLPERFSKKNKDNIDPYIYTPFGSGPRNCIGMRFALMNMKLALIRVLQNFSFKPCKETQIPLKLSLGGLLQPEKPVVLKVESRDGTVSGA
Sequence of p-glycoprotein (P-gp) pump (P08183 whole entry): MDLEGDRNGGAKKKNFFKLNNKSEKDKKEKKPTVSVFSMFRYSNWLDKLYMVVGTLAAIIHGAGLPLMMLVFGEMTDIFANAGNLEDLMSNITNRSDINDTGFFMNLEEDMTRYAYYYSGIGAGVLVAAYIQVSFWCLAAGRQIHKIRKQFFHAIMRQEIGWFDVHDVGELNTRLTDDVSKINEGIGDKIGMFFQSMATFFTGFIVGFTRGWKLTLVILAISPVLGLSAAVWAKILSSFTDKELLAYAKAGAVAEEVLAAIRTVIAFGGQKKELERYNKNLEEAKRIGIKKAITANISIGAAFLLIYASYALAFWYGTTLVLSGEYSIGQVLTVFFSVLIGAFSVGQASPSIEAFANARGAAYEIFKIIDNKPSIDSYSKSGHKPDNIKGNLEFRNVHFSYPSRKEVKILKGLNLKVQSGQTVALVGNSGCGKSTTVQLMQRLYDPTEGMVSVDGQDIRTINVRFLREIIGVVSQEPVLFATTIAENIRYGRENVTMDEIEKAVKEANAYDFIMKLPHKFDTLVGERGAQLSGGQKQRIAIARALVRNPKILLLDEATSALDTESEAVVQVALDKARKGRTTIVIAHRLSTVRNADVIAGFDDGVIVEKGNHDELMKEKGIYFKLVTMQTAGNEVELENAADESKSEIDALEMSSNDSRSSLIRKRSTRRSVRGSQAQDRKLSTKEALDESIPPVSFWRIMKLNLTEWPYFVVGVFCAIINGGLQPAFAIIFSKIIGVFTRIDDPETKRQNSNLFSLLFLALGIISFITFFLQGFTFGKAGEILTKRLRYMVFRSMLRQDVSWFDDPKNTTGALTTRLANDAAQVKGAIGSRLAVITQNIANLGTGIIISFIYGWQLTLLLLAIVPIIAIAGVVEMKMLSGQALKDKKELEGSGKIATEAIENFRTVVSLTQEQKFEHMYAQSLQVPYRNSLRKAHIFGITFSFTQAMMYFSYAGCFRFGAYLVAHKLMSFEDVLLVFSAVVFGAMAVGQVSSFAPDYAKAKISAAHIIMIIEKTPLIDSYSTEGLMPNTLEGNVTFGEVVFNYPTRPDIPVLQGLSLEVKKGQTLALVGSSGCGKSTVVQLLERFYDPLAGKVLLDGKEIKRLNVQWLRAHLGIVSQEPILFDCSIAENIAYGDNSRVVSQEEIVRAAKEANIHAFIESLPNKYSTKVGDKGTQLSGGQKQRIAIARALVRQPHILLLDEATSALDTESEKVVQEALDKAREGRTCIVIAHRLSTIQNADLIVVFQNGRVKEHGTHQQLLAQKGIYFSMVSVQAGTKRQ

Compound: CCN(CC)CCOc1ccc(Cc2ccccc2)cc1 [DPPE, N,N-diethyl-2-[4-(phenylmethyl)-phenoxy]ethanamine]
- inhibition of the p-glycoprotein (P-gp) pump [1]: inhibits
- substrate for CYP 3A4 (CYP 3A4): potent substrate
- potentiation of cytotoxicity of a variety of antineoplastic drugs [2]: potentiates the cytotoxicity
- potentiation of cytotoxicity of a variety of antineoplastic drugs [3]: potentiates the cytotoxicity
